Values after ≈ are worked out from the molar mass of the structure shown. Square brackets hold non-standard residues; d marks the D form. Peptide text beside a SMILES is read from it. 1Nal = N[C@@H](Cc1cccc2ccccc12)C(=O)O
Columns and labels:
[1] = system: C. albicans designated CA-1, Strain SLU-1; conditions: designated CA-1, Strain SLU-1, 18 h
Procedure: In each broth assay screening procedure, a colony of C. albicans designated CA-1, Strain SLU-1 that was received from the laboratories of G. Matuschak and A. Lechner, St. Louis University Hospital, St. Louis, Mo., where the strain was maintained, was inoculated into a tube containing 5 mL Sabouraud Dextrose broth (2% dextrose, 1% neopeptone) and incubated overnight at 37° C. with shaking. The overnight culture was diluted 1:50 into 5 mL of fresh broth and incubated for 3 hours at 37° C. Organisms were pelleted by centrifugation in a Beckman J-6M centrifuge for 5 minutes at 3000 rpm (1500×g) and the pellets were resuspended in 5 mL phosphate buffered saline (PBS) and the optical density at 570 nm was determined. On the basis of the determination that one OD unit equals 3×10^7 colony forming units/mL, yeast cells were diluted to 2×10^6 cells/mL in Sabouraud Dextrose broth.
Domain III peptides derived from or based on BPI to be screened were originally constituted in Dulbecco's-PBS, were diluted to 100 μg/mL in broth and were serially diluted 2-fold into wells of a 96 well sterile, flat bottom, non-pyrogenic tissue culture plate (Costar, Cambridge, Mass.). All assays were performed in triplicate. 2×10^5 organisms were added at 100 μl per well; final volume was 200 μL/well; the plate was incubated on a shaker at 37° C. for 18 hours; and the optical densities for each well were read at 590 nm. […] The broth assay data may be set out in terms of minimum inhibitory concentration (MIC), i.e. the lowest concentration required to reduce the optical density at 590 nm to below 0.1.

[2] = system: C. albicans (CA-1, Strain SLU-1); experiment: Radial diffusion assay; type: cell-based, Candida albicans; conditions: pmoles of peptide added to well to achieve a 30 mm^2 zone, PROBIT analysis; crude or purified (P′) peptide
Method in brief: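 Yeast at 1×10^6 CFU/mL in agarose underlayer (3% Sabouraud, 10 mM sodium phosphate pH 7.4); 2-fold peptide dilutions in D-PBS from ~1 mg/mL loaded into wells, 3 h at 37° C, then nutrient overlayer overnight. Value: pmol/well giving 30 mm^2 net clear zone, by PROBIT regression.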

[3] = Serum stability, anti-fungal activity after serum incubation by radial diffusion bioassay; type: in vitro ADME, rat or human serum; conditions: Activity in Serum t ½ (hr.)
Procedure: (§1) For these serum stability experiments, peptides were prepared by solid phase peptide sythesis and purified to 94% or greater purity as described in Example 1. Blood was collected from metaphane anesthesized rats by aortic bleed into Vacutainer™ tubes and allowed to clot at room temperature for approximately 30 minutes, then centrifuged at 3000 rpm (about 1000×g) for 10 minutes at room temperature and the serum aspirated. In addition, frozen human serum (North American Biologics, Inc., Miami, Fla., cat. no. 2140, lot no. 94115) was thawed at room temperature and filtered through a 0.45 μm membrane before use.
(§2) A 1 mg/mL solution of an exemplary XMP peptide to be tested was added to an equal volume of either rat or human serum described above and maintained at 37° C. At 0, 1, 2, and 4 hours, 100 μL were removed and processed by solid phase extraction for HPLC analysis as follows. Serum samples were prepared for HPLC using C-18 Sep-Pak cartridges (1 mL cartridge with 100 mg of sorbent, Waters Corp., Milford, Mass.). One hundred μL of serum sample were added to an equal volume of 1% TFA and mixed for 30 seconds on a Vortex mixer. The sample was then applied to a C-18 Sep-Pak cartridge that had been conditioned by washing with 1 mL of methanol followed by 1 mL Milli-Q water. Weakly reed components were eluted by washing with 1 mL of 0. 1% TFA. The bound peptide was eluted with two volumes of 250 μL 80% acetonitrile/0.065% TFA.
(§3) The peptides identified and purified after serum incubation as described above were subjected to N-terminal peptide sequencing performed on an Applied Biosystems Model 477A/120A sequencer and to electrospray ionization mass spectrometry (ESI/MS) performed using a VG Biotech Bio-Q Mass Spectrometer. In addition, the peptides identified and purified after serum incubation as described above were also tested for their anti-fungal activity in a radial diffusion bioassay with Candida albicans SLU-1 strain as described in Example 2.

[4] = system: Candida albicans SLU-2G amphotericin B-resistant strain; experiment: Radial diffusion assay (Example 3), amphotericin B-resistant strain; type: cell-based; conditions: FIG. 2B
Procedure: Domain III derived peptides were tested for their fungicidal activity on amphotericin resistant Candida. Resistant colonies of Candida were isolated using a gradient plate technique. A slanted Sabouraud dextrose agar plate was poured and allowed to harden. The plate was made level and additional agar supplemented with nystatin (Sigma, St. Louis, Mo., cat. no. N-3503) at a concentration of 10 μg/mL was poured. Cells from the CA-1 colony of Candida albicans SLU-1 strain described in Example 2 (10^7 cells in a volume of 100 μL) were spread over the plate and incubated at […] overnight.
(§4) For the radial diffusion assays, Candida albicans SLU-1 were grown as described above and SLU-2G were grown overnight in Sabouraud dextrose broth supplemented with 10 μg/mL amphotericin B and 5 μg/mL ceftriaxone at 37° C. Cultures were diluted 1:25 into fresh, unsupplemented broth and allowed to grow for 5 hours at 37° C. Cells were pelleted at 1,500×g for 5 minutes at 4° C. Supernatant was decanted and replaced with 5 mL of 10 mM phosphate buffer, pH 7.4. After centrifugation the cell pellets were resuspended with 5 mL phosphate buffer for an OD570 determination.
(§5) Cells were added to 10 mL of molten, cooled (˜45° C.) underlayer agarose to a concentration of 1×10^6/mL and the suspension was poured into a level square petri plate with gentle rocking to allow even distribution and solidification to a uniform thickness of about 1 mm. Wells were cut into the hardened agarose with a sterilize, 3 mm diameter punch with vacuum.
Peptides were two-fold serially diluted with DPBS from a starting concentration of approximately 1 mg/mL. […] Five μL were added per well and allowed to diffuse at 37° C. for 1.5-2.0 hours. Then 10 mL of molten overlayer agarose were added and the plates were incubated inverted at 37° C. overnight. Plates were stained with a dilute Coomassie solution, inhibition zones were measured with calipers and net areas were calculated, then converted to pmol values by PROBIT analysis.

Candida albicans SLU-1 = experiment: Radial diffusion assay (Example 3), wild type strain; type: cell-based; conditions: FIG. 2A
Procedure: as §4, with “determination. One OD570 for SLU-1 cells was 3×10^7 CFU/mL and for SLU-2G cells was 5×10^6 CFU/mL.” for “determination.”
as §5
Peptides were two-fold serially diluted with DPBS from a starting concentration of approximately 1 mg/mL. Amphotericin B and nystatin were similarly diluted starting at 100 and 225 μg/mL, respectively. Five μL were added per well and allowed to diffuse at 37° C. for 1.5-2.0 hours. Then 10 mL of molten overlayer agarose were added and the plates were incubated inverted at 37° C. overnight. Plates were stained with a dilute Coomassie solution, inhibition zones were measured with calipers and net areas were calculated, then converted to pmol values by PROBIT analysis. The results of a representative experiment are shown in FIG. 2A for the SLU-1 strain and FIG. 2B for the SLU-2G strain. In FIGS. 2A and 2B, the fungicidal activity is represented for XMP.13 as open circles; for XMP.37 as closed circles; for XMP.97 as open triangles; for XMP.127 as closed triangles; for amphotericin B as open squares; and for nystatin as closed squares. The pmol for a 30 mm^2 zone of inhibition were calculated to be: for XMP.13, 689 pmol against SLU-1 and 129 pmol against SLU-2G; for XMP.37, 231 pmol against SLU-1 and 75 pmol against SLU-2G; for XMP.97, 670 pmol against SLU-1 and 161 pmol against SLU-2G; for XMP.127, 935 pmol against SLU-1 and 116 pmol against SLU-2G; for amphotericin B, 36 pmol against SLU-1 and >541 pmol for SLU-2G; and for nysttin, 98 pmol against SLU-1 and >1,215 pmol against SLU-2G.

in vitro = in vitro ADME, rat or human serum; conditions: half-life of peptide in serum as detected by HPLC analysis
Procedure: as §1, §2
The material eluted from the Sep-Pak cartridge was analyzed on a Michrom Ultaafast Microprotein Analyzer equipped with a 150 mm×1 mm, 5μ particle, 300 Å pore C-8 Zorbax column. The column oven was set to 40° C., the flow rate was 100 μL/minute, and injection volumes were typically 5-10 μL. HPLC was performed using 5% acetonitrile/0.1% TFA in water as mobile phase A, and 80% acetonitrile/0.065% TFA as mobile phase B. The eluate was monitored spectiophotometrically at 214 nm. Peptide standards were dissolved in mobile phase A at 0. 1 mg/mL. The gradient was 25-35% B/10 minutes followed by a 5 minute wash step of 100% B and reequilibration at 25% B for 10 minutes.

[5] = system: Candida albicans SLU-1 strain; experiment: Serum stability, anti-fungal activity after serum incubation by radial diffusion bioassay; type: in vitro ADME, rat or human serum
Procedure: as §1, §2, §3

Row | Compound | minimum inhibitory concentration (MIC), lowest concentration required to reduce the optical density at 590 nm to below 0.1 [1] [µg/mL] | C. albicans pmol/30 mm^2 zone [2] | Activity in Serum t ½ (hr.) [5] | also measured
1 | CC[C@H](C)[C@H](NC(=O)[C@H](CC(C)C)NC(=O)[C@H](Cc1c[nH]c2ccccc12)NC(=O)CNC(=O)[C@@H](NC(=O)[C@H](CCCCN)NC(=O)[C@H](CO)NC(=O)[C@@H](N)CCCCN)C(C)C)C(=O)N[C@@H](CCC(N)=O)C(=O)N[C@@H](Cc1cccc2ccccc12)C(=O)N[C@@H](Cc1ccccc1)C(=O)N[C@@H](Cc1c[nH]cn1)C(=O)N[C@@H](CCCCN)C(=O)N[C@@H](CCCCN)C(N)=O [XMP.143] (H-KSKVGWLIQ[1Nal]FHKK-NH2) | 25.0 (≈ 13.9 µM) | >2839 pmol/30 mm^2 zone |  | 
2 | H-KSKVGYLIQLFHKK-NH2 [XMP.139] | 6.25 | 323 pmol/30 mm^2 zone |  | half-life at 0.5 mg/mL [3]: 10.6 h
3 | C[C@@H]1[C@H](O)[C@@H](C)/C=C/C=C/CC/C=C/C=C/C=C/C=C/C(O[C@H]2O[C@H](C)[C@@H](O)[C@H](N)[C@@H]2O)CC2O[C@](O)(CC(O)C(O)CCC(O)CC(O)CC(O)CC(=O)O[C@H]1C)CC(O)C2C(=O)O (some centres unmarked) [nystatin, reference compound] |  |  |  | pmol for a 30 mm^2 zone of inhibition against SLU-2G [4]: > 1,215 pmol; pmol for a 30 mm^2 zone of inhibition against SLU-1 (Candida albicans SLU-1): 98 pmol
4 | H-KSKVKFLIQLFHKK-NH2 [XMP.138] | 3.13 | 257 pmol/30 mm^2 zone |  | 
5 | CC[C@@H](C)[C@@H](NC(=O)[C@@H](CCC(N)=O)NC(=O)[C@@H](CC(C)C)NC(=O)[C@H](N)CCCCN)C(=O)N[C@H](CC(C)C)C(=O)N[C@H](Cc1c[nH]c2ccccc12)C(=O)N[C@H](CCCCN)C(=O)N[C@H](CCCCN)C(N)=O [XMP.374] |  | 198 pmol/30 mm^2 zone | indefinite | HPLC Peptide in Serum t ½ (hr.) (in vitro): indefinite
6 | H-KSKVGWLIQWFHKK-NH2 [XMP.142] | 12.5 | 1244 pmol/30 mm^2 zone |  | 
7 | CC[C@H](C)[C@H](NC(=O)[C@H](CC(C)C)NC(=O)[C@@H](Cc1c[nH]c2ccccc12)NC(=O)[C@@H](CCCCN)NC(C)=O)C(=O)N[C@@H](CCC(N)=O)C(=O)N[C@@H](CC(C)C)C(=O)N[C@@H](Cc1ccccc1)C(=O)N[C@@H](Cc1c[nH]cn1)C(=O)N[C@H](CCCCN)C(=O)N[C@H](CCCCN)C(N)=O [XMP.364] |  | 1,523 pmol/30 mm^2 zone | indefinite | half-life at 0.5 mg/mL (in vitro; serum, read-out: HPLC Peptide in Serum t ½ (converted)): 25 h
8 | CC[C@@H](C)[C@@H](NC(=O)[C@@H](CCC(N)=O)NC(=O)[C@@H](CC(C)C)NC(=O)[C@@H](CCCCN)NC(=O)[C@H](N)CCCCN)C(=O)N[C@H](C)C(=O)N[C@H](Cc1c[nH]c2ccccc12)C(=O)N[C@H](CCCCN)C(=O)N[C@H](CCCCN)C(N)=O [XMP.376] (H-[dK][dK][dL][dQ][dI][dA][dW][dK][dK]-NH2) |  | 138 pmol/30 mm^2 zone | indefinite | HPLC Peptide in Serum t ½ (hr.) (in vitro): indefinite

Reference: patent US6664231B1, “Anti-fungal peptides” (priority 1993, dated 2003)
